Biological target: AMPK
Assay: AMPK activation, enzyme-linked immunosorbent assay
Format: biochemical
Conditions: Table 4, ELISA
Protocol: Compounds 1-54 were assayed for their ability to activate AMPK using an enzyme-linked immunosorbent assay.
Compounds 55-62 of Table 1 were assayed for their ability to activate AMPK using an enzyme-linked immunosorbent assay.
Compounds 63-66 of Table 1 were assayed for their ability to activate AMPK using an enzyme-linked immunosorbent assay.
Compounds 67-71 of Table 1 were assayed for their ability to activate AMPK using an enzyme-linked immunosorbent assay.
Compound 72 of Table 1 was assayed for its ability to activate AMPK using an enzyme-linked immunosorbent assay.

EC50 [nM]	Compound
< 500	N#Cc1ccc(CN2CCC(Oc3ccc4cc(C(=O)NC5CCN(Cc6ccccc6)CC5)ccc4c3)CC2)cc1 [Compound 64, N-(1-benzylpiperidin-4-yl)-6-(1-(4-cyano-benzyl)piperidin-4-yloxy)-2-naphthamide]
1000 to 5000	O=C(NC1CCN(Cc2ccccc2)CC1)c1ccc2cc(OC3CCN(c4ccc(C(F)(F)F)cc4)CC3)ccc2c1 [Compound 65, N-(1-benzylpiperidin-4-yl)-6-(1-(4-(trifluoro-methyl)phenyl)piperidin-4-yloxy)-2-naphthamide]
1000 to 5000	CC(C)(C)OC(=O)N1CCC(NC(=O)c2ccc3ccc(OC4CCN(c5ccc(C(F)(F)F)cc5)CC4)cc3c2)CC1 [Compound 66, tert-butyl 4-(7-(1-(4-(trifluoromethyl)phenyl)piperidin-4-yloxy)-2-naphthamido)piperidine-1-carboxylate]

Same assay, conditions: Table 5, ELISA

Compound	EC50 [nM]
N#Cc1ccc(CN2CCC(NC(=O)c3cnc4ccc(OC5CCN(c6ccc(C(F)(F)F)cc6)CC5)cc4c3)CC2)cc1 [Compound 69, N-(1-(4-cyanobenzyl)piperidin-4-yl)-6-(1-(4-(trifluoromethyl)phenyl)piperidin-4-yloxy) quinoline-3-carboxamide]	< 100
O=C(NC1CCN(Cc2ccc(C(F)(F)F)cc2)CC1)c1cnc2ccc(OC3CCN(c4ccc(C(F)(F)F)cc4)CC3)cc2c1 [Compound 70, N-(1-(4-(trifluoromethyl)benzyl)piperidin-4-yl)-6-(1-(4-(trifluoromethyl)phenyl)piperidin-4-yloxy) quinoline-3-carboxamide]	< 100

Continued, values first:

EC50 [nM]	Compound
100 to 500	CC(C)(C)OC(=O)N1CCC(NC(=O)c2cnc3ccc(OC4CCN(c5ccc(C(F)(F)F)cc5)CC4)cc3c2)CC1 [Compound 67, tert-butyl 4-(6-(1-(4-(trifluoromethyl)phenyl)piperidin-4-yloxy)quinoline-3-carboxamido)piperidine-1-carboxylate]
> 5000	O=C(NC1CCNCC1)c1cnc2ccc(OC3CCN(c4ccc(C(F)(F)F)cc4)CC3)cc2c1 [Compound 68, N-(piperidin-4-yl)-6-(1-(4-(trifluoromethyl)phenyl)piperidin-4-yloxy) quinoline-3-carboxamide]

Reference: patent US8895578B2, “Carboxamide, sulfonamide and amine compounds and methods for using the same” (Rigel Pharmaceuticals, Inc., priority 2007, dated 2014)
